Source: patent US8962322B2, “Enhancers of induced pluripotent stem cell reprogramming” (City of Hope, priority 2012, dated 2015)
Where two headings read alike, the source gives them in different places.

Tests used:
[1] = test system: human Nanog promoter; assay: Nanog-luc luciferase reporter assay (stably transfected CV1 cells); type: cell-based; conditions: for induction of Nanog-luc, comparison with known reprogramming enhancers (in words): OAC1 1 μM, BIO 2 μM, BIX 2 μM, AzaC 2 μM, Vc 25 μg/ml, Am580 10 nM, tranylcypromine 5 μM, VPA 0.5 mM, two days; for Nanog-luc fold Induction / fold induction at 1 µM: compound at 1 μM, Nanog-luc cells, triplicates; for fold induction at 1 µM: Chlorocebus aethiops, CV-1
Description: Oct4, Sox2, and Nanog form a positive regulatory loop to regulate the expression of each other, and Nanog is considered a downstream target gene of Oct4 and Sox2 (37). Therefore, activation of Nanog promoter was used as a validation assay for the identified compounds. Specifically, the Oct4 promoter-activating compounds were tested to ascertain whether they activate a human
Nanog promoter-driven luciferase reporter gene using in triplicate luciferase reporter assays.
(§1) Then the promoter sequences were cloned into pGL4.4-luc-Hyg vector (Promega) to get Oct4-luc or Nanog-luc construct and the fidelity of the Oct4 and Nanog promoter DNA sequences was confirmed by bi-directional sequencing. CV 1 cells were transfected with the Oct4-luc or Nanog-luc constructs and the stably-transfected cells were selected by hygromycine resistance.
(§2) Luciferase Reporter Assays: The Oct4-luc or Nanog-luc cells were treated with compound OAC 1 or its structural analogs at 1 μM concentration or at indicated concentrations in triplicates. Other compounds used include 2 μM BIO, 2 μM BIX, 2 μM
(§3) AzaC, 25 μg/ml Vc, 10 nM Am580, 5 μM tranylcypromine, and 0.5 mM VPA. Luciferase reporter assays were performed as described (51) 24 hr after compound treatment or at indicated time points. For Topflash reporter assays, 0.2 μg β-catenin-responsive Topflash reporter gene plasmid was introduced into CV1 cells using trasfection (Bio-Rad). Compounds were added 6 hr after transfection. Luciferase activity was measured 48 hr after compound treatment using the Glo Luciferase Assay System (Promega).

[2] = test system: human Oct4 promoter; assay: Oct4-luc luciferase reporter assay (stably transfected CV1 cells); type: cell-based; conditions: for induction of Oct4-luc, comparison with known reprogramming enhancers (in words): OAC1 1 μM, BIO 2 μM, BIX 2 μM, AzaC 2 μM, Vc 25 μg/ml, Am580 10 nM, tranylcypromine 5 μM, VPA 0.5 mM, two days; for Oct4-luc Activity / Oct4-luc fold Induction / fold induction at 1 µM: compound at 1 μM, Oct4-luc cells, triplicates
From the text: A high-throughput screening scheme was designed to identify Oct4 promoter-activating compounds using a luciferase reporter under the control of the human Oct4 promoter (Oct4-luc). […] A stable cell line (Oct4-luc) that expresses luciferase reporter driven by the exogenous Oct4 promoter was established using hygromycin-resistance as a selection marker. These Oct4-luc cells were used for high-throughput screening of a chemical library of 80,000 compounds. The luciferase reporter activity was measured 24 hr after compound treatment. Solvent treatment was included as a negative control.
as §1
Compound Screening: The Oct4-luc cells were seeded at 1.75×10^4 cells per well density into 96-well plates. Compounds were added to cells one day after cell seeding at the concentration of 10 μM for 24 hr in the High-Throughput Screening core facility at City of Hope. Compounds that induced luciferase activity 3-fold or more were selected for further validation in both Oct4-luc and Nanog-luc cells.
as §2, §3

[3] = Homo sapiens, CV-1, 24 h, read-out: Oct4-luc Activity
[4] = read-out: Oct4-luc fold Induction

Structure (SMILES) | induction of Nanog-luc, comparison with known reprogramming enhancers (in words) [1] | induction of Oct4-luc, comparison with known reprogramming enhancers (in words) [2] | Nanog-luc fold Induction [1] [fold] | Oct4-luc Activity [2] | Oct4-luc fold Induction [2] [fold] | fold induction at 1 µM [1] | fold induction at 1 µM [2, 3] | fold induction at 1 µM [2, 4]
N[C@@H]1C[C@H]1c1ccccc1 (racemic) [tranylcypromine, reference compound] | no significant effect | no significant effect | – | – | – | – | – | –
CC1(C)CCC(C)(C)c2cc(C(=O)Nc3ccc(C(=O)O)cc3)ccc21 [Am580, reference compound] | no significant effect | no significant effect | – | – | – | – | – | –
COc1cc2nc(N3CCCN(C)CC3)nc(NC3CCN(Cc4ccccc4)CC3)c2cc1OC [BIX, reference compound] | no significant effect | no significant effect | – | – | – | – | – | –
CN1CCC(c2c[nH]c3ccc(NC(=O)c4ccc(F)cc4)cc23)CC1 [Compound C16] | – | – | 1.1 | + (molecules that induce Oct4-luc less than 1.8-fold were indicated as “+”) | 1.0 | – | – | –
Cc1ccc(C(=O)Nc2ccc3[nH]cc(C#N)c3c2)cc1 [Compound C17] | – | – | 1.1 | + (molecules that induce Oct4-luc less than 1.8-fold were indicated as “+”) | 1.1 | – | – | –
O=C(Nc1ccc2[nH]ncc2c1)c1cccc(F)c1 [Compound C18] | – | – | 1.2 | + (molecules that induce Oct4-luc less than 1.8-fold were indicated as “+”) | 1.3 | – | – | –
O=C(Nc1ccc2[nH]ncc2c1)c1cccc(Cl)c1 [Compound C19] | – | – | 1.5 | + (molecules that induce Oct4-luc less than 1.8-fold were indicated as “+”) | 1.6 | – | – | –
O=C(Nc1ccc2[nH]ncc2c1)c1cccc(Br)c1 [Compound C20] | – | – | 1.1 | + (molecules that induce Oct4-luc less than 1.8-fold were indicated as “+”) | 1.5 | – | – | –
O=C(Nc1ccc2[nH]ncc2c1)c1cccc(C(F)(F)F)c1 [Compound C21] | – | – | 1.2 | + (molecules that induce Oct4-luc less than 1.8-fold were indicated as “+”) | 1.2 | – | – | –
O=C(Nc1ccc2[nH]ncc2c1)c1ccccc1F [Compound C22] | – | – | 1.6 | + (molecules that induce Oct4-luc less than 1.8-fold were indicated as “+”) | 1.5 | – | – | –
O=C(Nc1ccc2[nH]ncc2c1)c1ccccc1Cl [Compound C23] | – | – | 1.6 | + (molecules that induce Oct4-luc less than 1.8-fold were indicated as “+”) | 1.7 | – | – | –
O=C(Nc1ccc2[nH]ncc2c1)c1ccccc1Br [Compound C24] | – | – | 1.6 | + (molecules that induce Oct4-luc less than 1.8-fold were indicated as “+”) | 1.5 | – | – | –
COc1ccccc1C(=O)Nc1ccc2[nH]ncc2c1 [Compound C25] | – | – | 1.6 | + (molecules that induce Oct4-luc less than 1.8-fold were indicated as “+”) | 1.5 | – | – | –
CCOc1ccccc1C(=O)Nc1ccc2[nH]ncc2c1 [Compound C26] | – | – | 1.2 | + (molecules that induce Oct4-luc less than 1.8-fold were indicated as “+”) | 1.2 | – | – | –
COc1cccc(C(=O)Nc2ccc3[nH]ncc3c2)c1OC [Compound C27] | – | – | 1.4 | + (molecules that induce Oct4-luc less than 1.8-fold were indicated as “+”) | 1.4 | – | – | –
COc1ccc(C(=O)Nc2ccc3[nH]ncc3c2)c(OC)c1 [Compound C28] | – | – | 1.4 | + (molecules that induce Oct4-luc less than 1.8-fold were indicated as “+”) | 1.4 | – | – | –
COc1ccc(C(=O)Nc2ccc3[nH]ncc3c2)cc1OC [Compound C29] | – | – | 1.1 | + (molecules that induce Oct4-luc less than 1.8-fold were indicated as “+”) | 1.1 | – | – | –
CCOc1ccc(C(=O)Nc2ccc3[nH]ncc3c2)cc1OCC [Compound C30] | – | – | 1.1 | + (molecules that induce Oct4-luc less than 1.8-fold were indicated as “+”) | 1.0 | – | – | –

Structure (SMILES) | induction of Nanog-luc, comparison with known reprogramming enhancers (in words) [1] | induction of Oct4-luc, comparison with known reprogramming enhancers (in words) [2] | Nanog-luc fold Induction [1] [fold] | Oct4-luc Activity [2] | Oct4-luc fold Induction [2] [fold] | fold induction at 1 µM [1] | fold induction at 1 µM [2, 3] | fold induction at 1 µM [2, 4]
O=C(Nc1ccc2[nH]nnc2c1)c1cccc(Cl)c1 [Compound C31] | – | – | 1.1 | + (molecules that induce Oct4-luc less than 1.8-fold were indicated as “+”) | 1.0 | – | – | –
Cc1nc2cc(NC(=O)c3ccc([N+](=O)[O-])cc3)ccc2[nH]1 [Compound C32] | – | – | 1.2 | + (molecules that induce Oct4-luc less than 1.8-fold were indicated as “+”) | 1.3 | – | – | –
COc1cc(OC)c(C(=O)Nc2ccc3[nH]ncc3c2)cc1OC [Compound C33] | – | – | – | – | – | 1.1 | < 1.8 | 1
COc1ccc(Cl)cc1C(=O)Nc1ccc2[nH]ncc2c1 [Compound C34] | – | – | – | – | – | 1.38 | < 1.8 | 1.23
O=C(Nc1ccc2[nH]ncc2c1)c1cc(F)c(F)cc1Cl [Compound C35] | – | – | – | – | – | 1.24 | < 1.8 | 1.15
O=C(Nc1ccc2[nH]ncc2c1)c1c(F)c(F)c(F)c(F)c1F [Compound C36] | – | – | – | – | – | 1.02 | < 1.8 | 1
COc1cc(C(=O)Nc2ccc3[nH]nnc3c2)cc(OC)c1OC [Compound C37] | – | – | – | – | – | 1.08 | < 1.8 | 1.05
CC(C)(C)OC(=O)Nc1ccc(C(=O)Nc2ccc3[nH]ncc3c2)cc1 [Compound C38] | – | – | – | – | – | 1.09 | < 1.8 | 1.2
Nc1ccc(C(=O)Nc2ccc3[nH]ncc3c2)cc1 [Compound C39] | – | – | – | – | – | 1.55 | < 1.8 | 1.62
CC(C)(C)OC(=O)NCc1ccc(C(=O)Nc2ccc3[nH]ncc3c2)cc1 [Compound C40] | – | – | – | – | – | 0.96 | < 1.8 | 0.97
NCc1ccc(C(=O)Nc2ccc3[nH]ncc3c2)cc1 [Compound C41] | – | – | – | – | – | 1.06 | < 1.8 | 1.01
O=C(CCCCC1SCC2NC(=O)NC21)NCc1ccc(C(=O)Nc2ccc3[nH]ncc3c2)cc1 (stereo not drawn) [Compound C42] | – | – | – | – | – | 0.97 | < 1.8 | 0.91
O=C(Nc1ccc2[nH]ccc2c1)c1ccc(F)cc1 [OAC3, 4-fluoro-N-(1H-indol-5-yl)benzamide] | – | – | – | – | – | 3.5 | ≥ 1.8 | 3.7
COc1ccc(C(=O)Nc2ccc3[nH]ccc3c2)cc1 [OAC4] | – | – | 4.9 | ++ (Compounds that induce Oct4-luc 1.8-fold or more were classified as “++”) | 4.8 | – | – | –
O=C(Nc1ccc2[nH]ccc2c1)c1ccc2nonc2c1 [OAC5] | – | – | 2.4 | ++ (Compounds that induce Oct4-luc 1.8-fold or more were classified as “++”) | 2.9 | – | – | –
COc1ccc(C(=O)Nc2ccc3[nH]ncc3c2)cc1 [OAC6] | – | – | 2.9 | ++ (Compounds that induce Oct4-luc 1.8-fold or more were classified as “++”) | 3.2 | – | – | –
O=C(Nc1ccc2[nH]ncc2c1)c1ccc(F)cc1 [OAC7] | – | – | 2.0 | ++ (Compounds that induce Oct4-luc 1.8-fold or more were classified as “++”) | 2.2 | – | – | –
O=C(Nc1ccc2[nH]ncc2c1)c1ccccc1 [OAC8] | – | – | 1.8 | ++ (Compounds that induce Oct4-luc 1.8-fold or more were classified as “++”) | 1.9 | – | – | –
